Data: ChEMBL document CHEMBL1201862, “PubChem BioAssay data set” (2004)
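Five compound concentrations were applied to cells in 96-well plates for 48 hours; endpoints were derived by simple linear interpolation of the resulting dose-response curve. GI50 is the concentration that inhibits growth by half.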 Active and inactive are the calls of the source. No stated cut-off is given here; in the data, active = GI50 up to about 1.1 µM and inactive = higher.

Experiments:
Test in all cases: DTP human tumour cell line panel, 48 h
HT-29 = tested on: HT-29
HOP-62 = tested on: HOP-62
SNB-75 = tested on: SNB-75
KM-20L2 = tested on: KM-20L2
HOP-92 = tested on: HOP-92
MCF7 = tested on: MCF7
HCC 2998 = tested on: HCC 2998
SN12C = tested on: SN12C
SK-MEL-28 = tested on: SK-MEL-28
MDA-MB-435 = tested on: MDA-MB-435
SF-539 = tested on: SF-539
KM12 = tested on: KM12
SK-MEL-2 = tested on: SK-MEL-2
HL-60 = tested on: HL-60
UACC-62 = tested on: UACC-62
UACC-257 = tested on: UACC-257
OVCAR-8 = tested on: OVCAR-8
M14 = tested on: M14
SF-295 = tested on: SF-295
OVCAR-3 = tested on: OVCAR-3

| SMILES | GI50 (HT-29) | GI50 (HOP-62) | GI50 (SNB-75) | GI50 (KM-20L2) | GI50 (HOP-92) | GI50 (MCF7) | GI50 (HCC 2998) | GI50 (SN12C) | GI50 (SK-MEL-28) | GI50 (MDA-MB-435) | GI50 (SF-539) | GI50 (KM12) | GI50 (SK-MEL-2) | GI50 (HL-60) | GI50 (UACC-62) | GI50 (UACC-257) | GI50 (OVCAR-8) | GI50 (M14) | GI50 (SF-295) | GI50 (OVCAR-3) |
| --- | --- | --- | --- | --- | --- | --- | --- | --- | --- | --- | --- | --- | --- | --- | --- | --- | --- | --- | --- | --- |
| O=C(Nc1cccc(C(F)(F)F)c1)C(=O)C(C(=O)c1ccc2ccccc2c1)C1OC(=O)c2ccccc21 (configuration not stated) | 13.5 µM (inactive) | 11.5 µM (inactive) | 12 µM (inactive) | 15.8 µM (inactive) | 22.8 µM (inactive) | 7.16 µM (inactive) | 10.8 µM (inactive) | 13.2 µM (inactive) | 6.79 µM (inactive) | 17.4 µM (inactive) | 2.23 µM (inactive) | 12.2 µM (inactive) | 8.57 µM (inactive) | 7.69 µM (inactive) | 7.53 µM (inactive) | 11.5 µM (inactive) | 6.35 µM (inactive) | 13 µM (inactive) | 5.19 µM (inactive) | 16 µM (inactive) |
| CCOC(=O)c1sc2c(sc(=O)n2-c2ccccc2)c1O | > 100 µM (inactive) | > 100 µM (inactive) | > 100 µM (inactive) | > 100 µM (inactive) | > 100 µM (inactive) | – | > 100 µM (inactive) | > 100 µM (inactive) | > 100 µM (inactive) | – | > 100 µM (inactive) | > 100 µM (inactive) | > 100 µM (inactive) | > 100 µM (inactive) | > 100 µM (inactive) | > 100 µM (inactive) | > 100 µM (inactive) | > 100 µM (inactive) | > 100 µM (inactive) | 88.7 µM (inactive) |
| O=C(CCN1CCC(CCO)CC1)Nc1ccc2c(c1)C(=O)c1ccc(NC(=O)CCN3CCC(CCO)CC3)cc1C2=O | 13.5 µM (inactive) | 17.3 µM (inactive) | 20.2 µM (inactive) | 27.9 µM (inactive) | 29.8 µM (inactive) | – | 14.4 µM (inactive) | 16.5 µM (inactive) | 26.1 µM (inactive) | – | 6.28 µM (inactive) | 2.69 µM (inactive) | 3.76 µM (inactive) | 24.6 µM (inactive) | 9.04 µM (inactive) | 19.5 µM (inactive) | 9.89 µM (inactive) | – | > 100 µM (inactive) | 5.53 µM (inactive) |
| COC(=O)C(=O)C(C(=O)C=C(C)C)C(=O)C(=O)Nc1nc2ccc([N+](=O)[O-])cc2s1 (configuration not stated) | > 100 µM (inactive) | 38.4 µM (inactive) | 21.4 µM (inactive) | > 100 µM (inactive) | 27.3 µM (inactive) | – | 46.6 µM (inactive) | 37.9 µM (inactive) | 63.2 µM (inactive) | – | 36.6 µM (inactive) | 98.9 µM (inactive) | 49.5 µM (inactive) | 35.4 µM (inactive) | 38.5 µM (inactive) | 79.8 µM (inactive) | > 100 µM (inactive) | 52 µM (inactive) | – | 44.6 µM (inactive) |
| CC(=O)Nc1ccc(/C=C/C(=O)c2sc(C(N)=S)nc2C)cc1 | > 100 µM (inactive) | > 100 µM (inactive) | > 100 µM (inactive) | > 100 µM (inactive) | > 100 µM (inactive) | – | > 100 µM (inactive) | > 100 µM (inactive) | > 100 µM (inactive) | – | > 100 µM (inactive) | > 100 µM (inactive) | > 100 µM (inactive) | > 100 µM (inactive) | > 100 µM (inactive) | > 100 µM (inactive) | > 100 µM (inactive) | – | > 100 µM (inactive) | > 100 µM (inactive) |
| CN(C)CCNC(=O)c1cccc2ccc(-c3ccc(O)cc3)nc12 | 3.13 µM (inactive) | 1.47 µM (inactive) | 2.74 µM (inactive) | 6.68 µM (inactive) | 3.03 µM (inactive) | 0.859 µM (active) | 5.86 µM (inactive) | 2.16 µM (inactive) | 3.15 µM (inactive) | 3.74 µM (inactive) | 2.75 µM (inactive) | 4.54 µM (inactive) | 4.5 µM (inactive) | 0.847 µM (active) | 1.39 µM (inactive) | 2.61 µM (inactive) | 1.38 µM (inactive) | 0.664 µM (active) | 2.13 µM (inactive) | 3.13 µM (inactive) |
| COc1cc2c(c(OC)c1O)-c1ccc(SC)c(=O)cc1C(NC(C)=O)CC2 (configuration not stated) | 0.0119 µM (active) | 0.0405 µM (active) | < 0.01 µM (active) | 0.0129 µM (active) | 0.0124 µM (active) | – | 0.0261 µM (active) | 0.0518 µM (active) | < 0.01 µM (active) | – | < 0.01 µM (active) | < 0.01 µM (active) | < 0.01 µM (active) | < 0.01 µM (active) | < 0.0119 µM (active) | 2.24 µM (inactive) | 0.0307 µM (active) | 0.0249 µM (active) | 0.0184 µM (active) | < 0.01 µM (active) |
